Experimental data published in patent US20230277603A1, “VEILLONELLA PARVULA STRAIN AS AN ORAL THERAPY FOR NEUROINFLAMMATORY DISEASES” (Evelo Biosciences, Inc., priority 2020, published 2023).

Tested on: relapse-remitting EAE model induced with PLP139-151 peptide in SJL mice
Assay: SJL EAE model, therapeutic treatment (Example 3), clinical results
Type: in vivo
Details: for MMS ± SD: Day 0-42; for MMS ± SD / Incidence of relapse (%) / MMS of relapse period ± SD (Days 18-42) / End % body weight ± SD / End score ± SD: PO QD day ~11 - day 42; for MMS until Day 17 ± SD: acute phase, PO QD from day ~11; for End % body weight ± SD / End score ± SD: end of study
Procedure: The SJL EAE model is a Th17/Th1-mediated mouse model of relapsing-remitting neuroinflammatory disease that is induced via immunization with proteolipid protein (PLP), a major protein constituent of CNS myelin. Disease pathology is due to infiltration of immune cells in the CNS leading to decreased motor function and paralysis. Briefly, in this model mice are injected subcutaneously with an emulsion of PLP-peptide plus CFA and intraperitoneally with pertussis toxin on day 0. Acute neuroinflammatory disease develops between day 10 to day 16, and the relapsing-remitting disease phase occurs from day 20 to day 45. Mice are dosed daily from the day of sensitization through the end of the study by oral gavage. In a therapeutic model, dosing of the mice begins on the second day of disease (~ Day 11 after disease induction). Mice are scored daily for a decrease in motor function and complete paralysis in the tail and limbs. Histopathology is carried out to score the frequency of inflammatory infiltrates and demyelination in the spinal cord.
The model details and read-outs, and methods are described below. Treatment began two days after disease onset, around day ~11 (mice were enrolled on the second day of disease for each mouse).
Experimental Autoimmune Encephalomyelitis. Female SJL mice (8-10 weeks old) were subcutaneously injected at four sites with myelin proteolipid protein (PLP) 139-151 in CFA emulsion (0.05 mL/injection site; ~0.5 mg PLP PLP139-151/mL; Hooke Laboratories; EK-2120). Following immunization, EAE induction was completed by intraperitoneal injections of pertussis toxin (6 µg/mL; 0.1 mL/mouse) within 2 hours of immunization. Mice were randomized into groups and monitored for EAE clinical score over the course of 42 days. Disease progression was scored blinded of treatment or prior measurements. Disease severity was scored using standard EAE criteria: 0 (normal); 1 (loss of tail tone); 2 (hind limb weakness); 3 (hind limb paralysis); 4 (hind limb paralysis and forelimb paralysis or weakness); 5 (morbidity/death). Mice were observed daily for clinical symptoms.
• Vehicle (anaerobic sucrose buffer) PO QD day ~11 - day 42 • G.I. Strain A 10 mg/dose PO QD day ~11 - day 42 • Fingolimod, 1 mg/kg PO QD day ~11 - day 42 • Fingolimod, 0.1 mg/kg PO QD day ~11 - day 42
G.I. Strain A was prepared as a lyophilized powder and was gamma irradiated prior to use.

[1] = Strain A 10 mg/dose, Fingolimod 1 mg/kg

Q: With CCCCCCCCc1ccc(CCC(N)(CO)CO)cc1 [Fingolimod] as the molecule, how does the “MMS ± SD” value (Fingolimod 0.1 mg/kg) read?
A: Its value is 3.20±0.70.

Q: And the “MMS ± SD” value [1]?
A: The value was 3.13±0.52.

Q: What about the “Incidence of relapse (%)” value (Fingolimod 0.1 mg/kg) of the same molecule?
A: The value was 28.6%.

Q: What about the “MMS of relapse period ± SD (Days 18-42)” value (Fingolimod 0.1 mg/kg) of the same molecule?
A: Its value is 1.77±1.53.

Q: And the “Incidence of relapse (%)” value [1]?
A: Its value is 0%.

Q: What about the “MMS of relapse period ± SD (Days 18-42)” value [1] of the same molecule?
A: Its value is 0.83±0.67.

Q: And the “MMS until Day 17 ± SD” value (Fingolimod 0.1 mg/kg)?
A: Its value is 3.13 ± 0.69.

Q: What about the “MMS until Day 17 ± SD” value [1] of the same molecule?
A: Its value is 3.13±0.52.

Q: And the “End % body weight ± SD” value (Fingolimod 0.1 mg/kg)?
A: The value was 95.2±11.1%.

Q: And the “End score ± SD” value (Fingolimod 0.1 mg/kg)?
A: Its value is 0.97±1.45.

Q: What about the “End % body weight ± SD” value [1] of the same molecule?
A: Its value is 101.8±12.0%.

Q: What about the “End score ± SD” value [1] of the same molecule?
A: The value was 0.10±0.21.
